Source: patent publication US20240208898A1, “ENAMINE N-OXIDES: SYNTHESIS AND APPLICATION TO HYPOXIA-RESPONSIVE PRODRUGS AND IMAGING AGENTS” (DANA-FARBER CANCER INSTITUTE, INC., priority 2021, published 2024)

Experiments:
Assay type in all cases: cell-based
BxPC-3 cells = experiment: Western blot of pimonidazole-labeled cells; settings: 48 h, 10 μM, printed 'until after 1% pO2'
Procedure: Cells were seeded at a density of 200,000 cells per well in media [2 mL, RPMI supplemented with 5% heat-inactivated human serum (Sigma), penicillin (100 units/mL), and streptomycin (0.1 mg/mL)] in 6-well plates. Cells were incubated at 37° C. under ambient atmosphere with 5% CO2. After 24 hours, the media was aspirated and replaced with media [1 mL, RPMI supplemented with 5% heat-inactivated HS, penicillin (100 units/mL), and streptomycin (0.1 mg/mL)] containing pimonidazole (1 μL, 10 mM in water; 10 μM final concentration). Plates were then incubated at 37° C. under ambient (20% pO2) or oxygenated conditions (5%, 1%, or 0.1% pO2) with 5% CO2 for 48 hours. The oxygenated conditions were maintained using a hypoxia chamber (ProOx C21, Biospherix) in a cell culture incubator. After 48 hours, the media was aspirated, and the cells were washed with PBS (1 mL). PBS (1 mL) was then added to each well and the cells were scraped off with a cell scraper. […] The protein concentration was then determined by BCA assay following the manufacturer's protocol (Pierce). […] The dried pellet was then resuspended in an SDS solution (50 μL, 1% SDS in 50 mM Tris, pH 8.0), and the protein concentration was determined by BCA assay. […] Blots were imaged using a fluorescence scanner (Odyssey CLx, LI-COR Biosciences) and quantified by ImageJ.

A431 cells = experiment: Staurosporine release by A431 cells; settings: 7.5×10^6 A431 cells, 100 μM compound, serum free RPMI, HPLC
Procedure: Sterilized 2 mL HPLC vials were each charged with a suspension of 7.5×10^6 cells in RPMI (1 mL) and sealed with a cap containing a septum. The vials were charged with only RPMI (1 mL) in the no cell controls. A stock solution of staurosporine enamine N-oxide 37 (10 μL, 10 mM in ethanol; 100 μM final concentration) was then added to each vial. Septa were pierced with an open 22-gauge needle for normoxic conditions. Hypoxic conditions were maintained using nitrogen lines connected to a vacuum gas manifold. The vials were maintained at 37° C. in a water bath and shaken every 15 minutes. At different time points (0, 1, 2, 4, and 8 hours), an aliquot of the cell suspension (100 μL) was removed from each vial and immediately added to acetonitrile (100 μL) containing p-nitrophenol (10 μM) as an internal standard. Quenched samples were then cooled to −20° C. for 1 hour and centrifuged at 10,000×g for 5 minutes at 4° C. The supernatant was collected and analyzed by HPLC (C18 column, 4.6×250 mm, 5 μm particle size, 1 mL/minute flow rate, eluent: gradient 0→20% MeCN/H2O+0.1% TFA (1 minute), gradient 20→40% MeCN/H2O+0.1% TFA (7 minutes), gradient 40→100% MeCN/H2O+0.1% TFA (3 minutes)). Staurosporine was quantified using its absorbance at 280 nm.

A431 or H460 cells = experiment: Staurosporine enamine N-oxide cell viability studies (MTT); settings: compared with AQ4N
Procedure: A431 or H460 cells were seeded at a density of 12,000-13,000 cells per well in media [100 μL, RPMI supplemented with 5% heat-inactivated human serum (Sigma), penicillin (100 units/mL), and streptomycin (0.1 mg/mL)] in clear 96-well plates. PBS (100 μL) was added to the edge wells. The cells were incubated at 37° C. under ambient atmosphere with 5% CO2. After 24 hours, the media was aspirated and replaced with media [50 μL, RPMI supplemented with 5% HS, penicillin (100 units/mL), and streptomycin (0.1 mg/mL)] containing the staurosporine derivative of interest. For A431 cells, staurosporine or staurosporine derivative treatment concentrations started at 50 μM and were serially diluted 4-fold across nine wells. For H460 cells, staurosporine or staurosporine derivative treatment concentrations started at 100 μM and were serially diluted 4-fold across nine wells. […] After 48 hours, the media was aspirated, the wells were washed once with PBS (130 μL), and the cell viability was determined using the MTT assay. […] The absorbance at 570 nm was measured using a microplate reader (Clariostar Plus, BMG Labtech).
These studies were performed as previously reported (Manley et al., J. Pharmacol. Exp. Ther. 344:368-377 (2013)). […] After 72 hours, cell viability was determined using the MTT assay. […] The absorbance at 570 nm was then measured using a microplate reader (Clariostar Plus, BMG Labtech).

| SMILES | oxygen tension at which apparent half maximal labeling capacity (0.1% pO2) is reached (BxPC-3 cells) [% pO2] | rate of conversion to staurosporine under hypoxic conditions relative to normoxic (A431 cells) [fold] | hypoxic to normoxic cytotoxicity ratios (HCR) (A431 or H460 cells) |
| --- | --- | --- | --- |
| O=[N+]([O-])c1nccn1CC(O)CN1CCCCC1 (stereo not drawn) [Pimonidazole] | < 1 |  |  |
| CC[N+]([O-])(/C=C/COC(=O)N1Cc2c(c3c4ccccc4n4c3c3c2c2ccccc2n3[C@@]2(C)O[C@@H]4C[C@@H](NC)[C@H]2OC)C1=O)CC [compound 37, N,N-diethyl enamine N-oxide staurosporine] |  | ~4 | compare favorably with and are complementary to those of AQ4N |
